# Measured values as given in ChEMBL document CHEMBL5223119, “Discovery of pyrrolo[2,3-d]pyrimidine-based molecules as a Wee1 inhibitor template” (Bioorg Med Chem Lett, 2022).
# Tests used:
# NCI-H1299 = experiment: Antiproliferative activity against human NCI-H1299 cells assessed as cell growth inhibition incubated for 3 days by CellTiter-Glo Luminescent assay; type: functional, cell-based; conditions: NCI-H1299, 72 h
# [1] = Tmax in rat at 5 mg/kg,IG measured upto 24 hrs by LC-MS/MS analysis; type: ADME, organism-based; conditions: in vivo, po
# [2] = AUC (0-infinity) in rat at 5 mg/kg,IG measured upto 24 hrs by LC-MS/MS analysis; type: ADME, organism-based; design: dose 5 mg/kg, time < 24 hrs, route ig; conditions: in vivo, po
# Wee1-like protein kinase = Wee1-like protein kinase (Homo sapiens, UniProt P30291); experiment: Inhibition of Wee1 (unknown origin) incubated for 60 mins by LanthaScreen Eu-Kinase binding assay
# Chain of Wee1-like protein kinase (P30291 whole entry): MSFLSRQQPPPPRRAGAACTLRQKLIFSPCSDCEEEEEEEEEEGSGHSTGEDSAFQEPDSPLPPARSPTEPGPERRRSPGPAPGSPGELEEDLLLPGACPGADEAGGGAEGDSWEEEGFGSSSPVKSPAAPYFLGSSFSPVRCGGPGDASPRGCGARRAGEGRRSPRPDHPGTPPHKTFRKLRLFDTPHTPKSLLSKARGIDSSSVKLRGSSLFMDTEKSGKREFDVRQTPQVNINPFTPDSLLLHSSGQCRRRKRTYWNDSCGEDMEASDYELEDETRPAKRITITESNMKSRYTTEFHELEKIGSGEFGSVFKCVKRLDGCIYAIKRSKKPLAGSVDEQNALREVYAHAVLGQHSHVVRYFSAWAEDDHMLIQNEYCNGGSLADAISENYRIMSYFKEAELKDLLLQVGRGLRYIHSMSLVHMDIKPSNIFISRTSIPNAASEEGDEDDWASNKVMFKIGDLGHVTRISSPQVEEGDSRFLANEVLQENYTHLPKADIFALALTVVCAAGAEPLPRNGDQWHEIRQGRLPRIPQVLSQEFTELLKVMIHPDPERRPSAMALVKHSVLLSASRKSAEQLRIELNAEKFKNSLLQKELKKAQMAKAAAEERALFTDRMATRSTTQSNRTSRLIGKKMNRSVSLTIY
# [3] = Half life in rat at 5 mg/kg,IG measured upto 24 hrs by LC-MS/MS analysis; type: ADME, organism-based; conditions: in vivo, po
# [4] = Cmax in rat at 5 mg/kg,IG measured upto 24 hrs by LC-MS/MS analysis; type: ADME, organism-based; design: dose 5 mg/kg, time < 24 hrs, route ig; conditions: in vivo, po
SMILES,IC50 (NCI-H1299) [nM],Tmax [1] [h],AUC(0-inf) [2] [ng·h/mL],IC50 (Wee1-like protein kinase) [nM],half-life [3] [min],Cmax [4] [ng/mL]
CN1CCN(C2CCN(c3ccc(Nc4ncc5c(F)c(C6CC6)n(-c6cccc(C(C)(C)O)n6)c5n4)cc3F)CC2)CC1,623,6.7,4580,10.6,2000,117
CN1CCC2(CC1)CCN(c1ccc(Nc3ncc4cc(C5CC5)n(-c5cccc(C(C)(C)O)n5)c4n3)cc1)CC2,199,4.8,4070,–,1150,163
CCCc1c(F)c2cnc(Nc3ccc(N4CCOCC4)cc3)nc2n1-c1cccc(N=S(C)(C)=O)n1,332,–,–,3.37,–,–
CN1CCN(c2ccc(Nc3ncc4c(F)c(C5CC5)n(-c5cccc(C(C)(C)O)n5)c4n3)cc2)CC1,288,–,–,38.2,–,–
Cc1cc2cnc(Nc3ccc(N4CCN(C)CC4)cc3)nc2n1-c1cccc(N=S(C)(C)=O)n1,59,–,–,–,–,–
CN1CCN(C2CCN(c3ccc(Nc4ncc5c(F)c(C6CC6)n(-c6cccc(C(C)(C)O)n6)c5n4)cc3)CC2)CC1,211,6,1750,0.86,654,83
CCCc1cc2cnc(Nc3ccc(N4CCN(C)CC4)cc3)nc2n1-c1cccc(C(C)(C)O)n1,126,–,–,–,–,–
CCc1cc2cnc(Nc3ccc(N4CCN(C)CC4)cc3)nc2n1-c1cccc(C(C)(C)O)n1,–,–,–,0.1,–,–
CC(C)c1cc2cnc(Nc3ccc(N4CCN(C)CC4)cc3)nc2n1-c1cccc(N=S(C)(C)=O)n1,100,–,–,–,–,–
CC(C)c1cc2cnc(Nc3ccc(N4CCN(C)CC4)cc3)nc2n1-c1cccc(C(C)(C)O)n1,91,–,–,0.42,–,–
CN1CCN(C2CCN(c3ccc(Nc4ncc5cc(C6CC6)n(-c6cccc(N=S(C)(C)=O)n6)c5n4)cc3)CC2)CC1,156,–,–,2.54,–,–
CCCc1cc2cnc(Nc3ccc(N4CCC(N5CCN(C)CC5)CC4)cc3)nc2n1-c1cccc(N=S(C)(C)=O)n1,87,–,–,–,–,–
CN1CCN(C2CCN(c3ccc(Nc4ncc5cc(C6CC6)n(-c6cccc(C(C)(C)O)n6)c5n4)cc3)CC2)CC1,105,–,–,1.33,–,–
Cc1cc2cnc(Nc3ccc(N4CCN(C)CC4)cc3)nc2n1-c1cccc(C(C)(C)O)n1,–,1,710,–,214,125
CN1CCN(c2ccc(Nc3ncc4cc(C5CC5)n(-c5cccc(N=S(C)(C)=O)n5)c4n3)cc2F)CC1,42,–,–,–,–,–
CCc1cc2cnc(Nc3ccc(N4CCN(C)CC4)cc3)nc2n1-c1cccc(N=S(C)(C)=O)n1,23,2.67,48,–,134,8.1
CCCc1c(F)c2cnc(Nc3ccc(N4CCN(C)CC4)cc3)nc2n1-c1cccc(N=S(C)(C)=O)n1,43,1.67,314,–,275,36.8
COCc1cc2cnc(Nc3ccc(N4CCN(C)CC4)cc3)nc2n1-c1cccc(N=S(C)(C)=O)n1,101,–,–,2.03,–,–
CCCc1c(F)c2cnc(Nc3ccc(N4CCN(C)CC4)cc3)nc2n1-c1cccc(C(C)(C)O)n1,1720,–,–,9.3,–,–
CN1CCN(c2ccc(Nc3ncc4cc(C5CC5)n(-c5cccc(N=S(C)(C)=O)n5)c4n3)cc2)CC1,42,0.92,286,0.92,496,76.9
CCCc1cc2cnc(Nc3ccc(N4CCN(C)CC4)cc3)nc2n1-c1cccc(N=S(C)(C)=O)n1,33,2.33,188,–,194,29.4
CCCc1cc2cnc(Nc3ccc(N4CCOCC4)cc3)nc2n1-c1cccc(N=S(C)(C)=O)n1,451,–,–,8.3,–,–
C=CCn1c(=O)c2cnc(Nc3ccc(N4CCN(C)CC4)cc3)nc2n1-c1cccc(C(C)(C)O)n1 [ADAVOSERTIB],104,–,–,–,–,–
